Holding throughout (assay): NCI tumour cell line growth inhibition, 48 h
Test [1] concerns COLO 205.
The test system of test [2] is DU-145.
In test [3] the test system is HCC 2998.
For test [4], the system named is HCT-116.
Test [5] deals with HL-60.
For test [6], the system named is MCF7.
The test system of test [7] is MDA-MB-435.
Test [8] relates to MOLT-4.
The test system of test [9] is NCI-H522.
Test [10] concerns NCI/ADR-RES.
In test [11] the test system is OVCAR-4.
Test [12] concerns OVCAR-5.
Test [13] has as its system OVCAR-8.
For test [14], the system named is RPMI-8226.
Test [15] deals with SF-295.
Test [16] concerns SK-MEL-28.
The test system of test [17] is SK-MEL-2.
Test [18] deals with SNB-75.
Test [19] has as its system U-251.
The test system of test [20] is UACC-257.

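These data come from cells grown in 96-well plates and exposed to compound for 48 hours at five concentrations. GI50 marks 50% less growth.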 Calls of active or inactive are those of the source. No stated cut-off is given here; in the data, active = GI50 up to about 1.1 µM and inactive = higher. Where only a bound is given, the exact number is not on record here.

Turning to `Clc1ccc(-c2nnc(-c3cccc4ccccc34)o2)cc1Cl`, the GI50 in test [1] is > 100 µM (inactive); in [2] it was > 100 µM (inactive); in [3] it was > 100 µM (inactive); in test [4], > 100 µM (inactive); in test [5] it was 1.03 µM (active); in [6], > 100 µM (inactive). The GI50 in test [7] was > 100 µM (inactive); in test [8], 59.7 µM (inactive); in [9], > 100 µM (inactive); in [10], > 100 µM (inactive); in test [11] it was 98.4 µM (inactive); in test [12], > 100 µM (inactive). Also, the GI50 in [13], in [14], in [15], in [16], in [17] and in test [18] was > 100 µM (inactive) throughout. Further, the GI50 in test [19] and in test [20] was > 100 µM (inactive) in each case.
Consider `Cc1ccc(NCCCN2CCN(CCCNc3ccc(C)c4sc5ccccc5c(=O)c34)CC2)c2c(=O)c3ccccc3sc12`, for which the GI50 in test [1] is > 100 µM (inactive); in [2] it was 71.6 µM (inactive); in test [3], > 100 µM (inactive); in test [4] it was > 100 µM (inactive); in test [5], > 100 µM (inactive); in test [6], > 100 µM (inactive). Also, the GI50 in test [7], in [8], in test [9], in test [10], in test [11] and in [12] was > 100 µM (inactive) throughout. Further, the GI50 in test [13] was > 100 µM (inactive); in [14], > 100 µM (inactive); in test [15], 55.6 µM (inactive); in [16] it was 30.5 µM (inactive); in test [17] it was 23.4 µM (inactive); in test [18], 20.6 µM (inactive). Also, the figures for the GI50 in [19] and in [20] were 67.6 µM (inactive) and > 100 µM (inactive), respectively.
As for `COc1cc(OC)c2c(=O)c3cccc(C)c3n(C)c2c1`, the GI50 in [1] is 67 µM (inactive); in [2], 57.3 µM (inactive); in test [3] it was > 100 µM (inactive); in [4], 48.3 µM (inactive); in test [5] it was 30.5 µM (inactive); in test [6], 34 µM (inactive). Further, the GI50 was 50.7 µM (inactive) in test [7]; 52.4 µM (inactive) in [8]; > 100 µM (inactive) in [9]; 64.1 µM (inactive) in test [10]; 64 µM (inactive) in test [11]; > 100 µM (inactive) in test [12]. For the same compound, the GI50 is 64.7 µM (inactive) in test [13]; 17.9 µM (inactive) in test [14]; 57.7 µM (inactive) in test [15]; 50.1 µM (inactive) in test [16]; 76.7 µM (inactive) in [17]; 61.5 µM (inactive) in test [18]. Also, the GI50 in [19] is 84.3 µM (inactive); in [20], 43.5 µM (inactive).
As for `NS(=O)(=O)c1ccc(NNc2c3ccccc3nc3ccccc23)cc1`, the GI50 is 7.29 µM (inactive) in test [1]; 14.3 µM (inactive) in [2]; 12.2 µM (inactive) in test [3]; 10.8 µM (inactive) in test [4]; 8.63 µM (inactive) in test [5]; 10.9 µM (inactive) in test [6]. Moreover, the GI50 in [7] is 12.4 µM (inactive); in test [8] it was 6.04 µM (inactive); in test [9], 11.4 µM (inactive); in [10], 14 µM (inactive); in [11], 10.5 µM (inactive); in [12], 12.8 µM (inactive). In addition, the GI50 is 11.8 µM (inactive) in test [13]; 9.4 µM (inactive) in test [14]; 12 µM (inactive) in test [15]; 12 µM (inactive) in [16]; 13.5 µM (inactive) in [17]; 12.9 µM (inactive) in test [18]. The GI50 in test [19] is 11.7 µM (inactive); in test [20] it was 13.2 µM (inactive).
As for `O=[N+]([O-])c1cc(F)ccc1Sc1ccccc1`, the GI50 in test [1], in test [2], in [3], in test [4], in test [5] and in [6] was > 10 µM (inactive) each time. The GI50 in [7], in test [8], in test [9], in test [10], in test [11] and in [12] was > 10 µM (inactive) throughout. Besides, the GI50 in test [13], in test [14], in [15], in [16], in test [17] and in [18] was > 10 µM (inactive) throughout. Besides, the GI50 in test [19] and in test [20] was > 10 µM (inactive) throughout.
For the compound `CCCCCCCCC/C=C/C=C/C(=O)NCC(=O)NC1C(O)C(O)C(Nc2ncnc3[nH]cnc23)OC1C(O)CO` (stereo not given), the GI50 in test [1] was 0.001 µM (active); in test [2] it was 0.00388 µM (active); in test [3], 0.000509 µM (active); in test [4], 0.00323 µM (active); in [5], 0.00159 µM (active); in [6] it was 0.668 µM (active). The GI50 is 0.0255 µM (active) in [7]; 0.158 µM (active) in [8]; 0.00532 µM (active) in test [9]; < 0.01 µM (active) in test [10]; 0.00115 µM (active) in test [11]; 0.00174 µM (active) in test [12]. Further, the GI50 in [13] is 0.00413 µM (active); in [14], 0.0018 µM (active); in test [15], 0.00796 µM (active); in test [16], 0.0695 µM (active); in test [17], 0.0056 µM (active); in test [18], 0.00125 µM (active). The GI50 was 0.00149 µM (active) in test [19] and 0.00444 µM (active) in test [20].
As to `COC(C(=O)C(O)C(C)O)C1CC2C=C3C=C(OC4CC(OC5CC(O)C(OC)C(C)O5)C(OC(C)=O)C(C)O4)C(C)C(O)=C3C(O)=C2C(=O)C1OC1CC(OC2CC(OC3CC(C)(O)C(OC(=O)C(C)C)C(C)O3)C(O)C(C)O2)C(O)C(C)O1` (stereo not given), the GI50 in [1], in test [2], in [3], in [4], in test [5] and in test [6] was < 0.01 µM (active) each time. Moreover, the GI50 in [7], in [8], in test [9], in [10], in [11] and in [12] was < 0.01 µM (active) each time. In addition, the GI50 in test [13], in test [14], in [15], in test [16], in test [17] and in test [18] was < 0.01 µM (active) throughout. Further, the GI50 in [19] and in [20] was < 0.01 µM (active) throughout.
As for `O=C1OC(c2ccccc2)=N/C1=C\c1ccc(N(CCCl)CCCl)cc1`, the GI50 in test [1] was > 100 µM (inactive); in [2], > 100 µM (inactive); in test [3] it was > 100 µM (inactive); in test [4], > 100 µM (inactive); in test [5], 45.4 µM (inactive); in test [6], 39.9 µM (inactive). The GI50 was > 100 µM (inactive) in test [7]; 44.9 µM (inactive) in test [8]; 21.3 µM (inactive) in [9]; > 85.1 µM (inactive) in test [10]; > 100 µM (inactive) in [11]; > 100 µM (inactive) in test [12]. The GI50 in [13] was > 100 µM (inactive); in [14], 35.1 µM (inactive); in test [15], > 100 µM (inactive); in test [16], > 100 µM (inactive); in test [17] it was > 27.2 µM (inactive); in test [18] it was > 100 µM (inactive). In addition, the GI50 in test [19] and in test [20] was > 100 µM (inactive) in each case.
Turning to `C=C1CC2(CC(c3ccccc3C)OC(c3ccccc3C)C2)OC1=O` (stereo not given), the GI50 was 1.9 µM (inactive) in test [1]; 12.1 µM (inactive) in test [2]; 2.25 µM (inactive) in [3]; 1.82 µM (inactive) in [4]; 1.6 µM (inactive) in [5]; 1.85 µM (inactive) in test [6]. Further, the GI50 in test [7] is 1.71 µM (inactive); in test [8], 2.77 µM (inactive); in [9], 1.73 µM (inactive); in [10], 3.48 µM (inactive); in [11], 2.27 µM (inactive); in test [12] it was 13.2 µM (inactive). Besides, the GI50 is 2.19 µM (inactive) in test [13]; 0.473 µM (active) in test [14]; 15.8 µM (inactive) in [15]; 1.82 µM (inactive) in test [16]; 2 µM (inactive) in test [17]; 3.23 µM (inactive) in [18]. In addition, the GI50 in test [19] was 12.9 µM (inactive); in test [20], 1.78 µM (inactive).
Take `CC1C(=O)OC2CC[N+]3([O-])CC=C(COC(=O)C(C)(O)C1(C)O)C23` (stereo not given): the GI50 in test [1], in test [2], in test [3], in [4], in test [5] and in test [6] was > 100 µM (inactive) each time. The GI50 in test [7], in [8], in test [9], in test [10], in [11] and in test [12] was > 100 µM (inactive) each time. Moreover, the GI50 in [13], in test [14], in [15], in test [16], in [17] and in [18] was > 100 µM (inactive) each time. In addition, the GI50 in test [19] and in test [20] was > 100 µM (inactive) in each case.
